{"source": "paper PMC5041162", "about": "“Chemistry and Molecular Dynamics Simulations of Heme b-HemQ and Coproheme-HemQ” (Biochemistry, 2016)", "key": {"apo-myoglobin": {"molecular_target": "apo-myoglobin", "conditions": "cited from earlier work"}, "[1]": {"molecular_target": "T1, apo-SaHemQ (HemQ from Staphylococcus aureus) (Staphylococcus aureus, UniProt A6QEP0)", "T1 construct": "poly-His (C); made in house; host or cells: Escherichia coli BL21(DE3)pLysS", "T1 sequence (A6QEP0 whole entry)": "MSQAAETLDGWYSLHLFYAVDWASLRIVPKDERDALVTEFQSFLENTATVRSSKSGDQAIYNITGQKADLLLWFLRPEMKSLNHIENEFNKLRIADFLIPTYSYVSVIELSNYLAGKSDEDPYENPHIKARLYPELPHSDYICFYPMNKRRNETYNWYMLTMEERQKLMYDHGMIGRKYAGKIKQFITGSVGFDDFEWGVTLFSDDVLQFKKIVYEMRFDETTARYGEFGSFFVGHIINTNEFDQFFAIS", "type": "binding", "conditions": "pH 7", "procedure": "(§1) Time-resolved binding of coproheme to apo-HemQ was monitored using a stopped-flow apparatus equipped with a diode array detector (model SX-18MV, Applied Photophysics), in the conventional mode. […] The fastest mixing time was 1 ms. […]. Experiments were conducted in 50 mM phosphate buffer (pH 7.0). Reactions were simulated, and rates were estimated using Pro-Kineticists software (Applied Photophysics). The apparent second-order rate constants, kon, were obtained from the slope of a plot of kobs versus coproheme concentration."}, "[2]": {"molecular_target": "T2, apo-LmHemQ (HemQ from Listeria monocytogenes) (Listeria monocytogenes serovar 1/2a, UniProt Q8Y5F1)", "T2 construct": "made in house; host or cells: Escherichia coli", "T2 sequence (Q8Y5F1 whole entry)": "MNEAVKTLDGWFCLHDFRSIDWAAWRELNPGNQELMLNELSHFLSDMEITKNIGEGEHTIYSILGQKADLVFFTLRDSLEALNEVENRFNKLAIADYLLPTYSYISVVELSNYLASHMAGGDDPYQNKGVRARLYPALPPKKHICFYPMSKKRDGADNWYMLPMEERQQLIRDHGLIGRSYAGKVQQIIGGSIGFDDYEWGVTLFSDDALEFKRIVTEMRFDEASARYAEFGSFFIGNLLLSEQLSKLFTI", "type": "binding", "conditions": "pH 7", "procedure": "as §1"}, "[3]": {"test_system": "apo-SaHemQ and apo-LmHemQ", "type": "binding, S. aureus and L. monocytogenes", "procedure": "as §1"}, "SaHemQ": {"test_system": "SaHemQ", "type": "binding, Staphylococcus aureus", "protocol": "Differential scanning calorimetry (DSC) measurements were performed using a VP-capillary DSC microcalorimeter from Microcal with a cell volume of 137 μL. The measurements were controlled by the VP-viewer program, and the instrument was equipped with an autosampler for 96-well plates. Samples were analyzed using a programmed heating scan rate of 60 °C h^–1 over a temperature range from 20 to 100 °C, and the cell pressure was approximately 60 psi (4.136 bar). DSC thermograms were corrected for buffer baseline and protein concentration. Apo-, heme b-, or coproheme-LmHemQ and SaHemQ (5 μM each) in 50 mM phosphate buffer (pH 7.0) were used for each measurement. For data analysis and conversion, the Microcal origin software was used. Heat capacity (Cp) was expressed in kilocalories per mole per kelvin. Data points were fitted to non-two-state equilibrium unfolding models by the Lavenberg–Marquardt (LM) nonlinear least-squares method."}}, "data": [{"smiles": "C=CC1=C(C)c2cc3[n-]c(cc4nc(cc5[n-]c(cc1n2)c(C)c5CCC(=O)O)C(CCC(=O)O)=C4C)c(C)c3C=C.[Fe+3]", "note": "[hemin]", "values": [{"measurement": "KD of the prosthetic group to apo-myoglobin", "setting": "apo-myoglobin", "result": "low nanomolar range"}]}, {"smiles": "CC1=C(CCC(=O)O)c2cc3[n-]c(cc4nc(cc5[n-]c(cc1n2)c(CCC(=O)O)c5C)C(C)=C4CCC(=O)O)c(CCC(=O)O)c3C.[Fe]", "note": "[coproheme, iron coproporphyrin III]", "values": [{"measurement": "kon, binding of coproheme to apo-HemQ, first (fast) phase", "setting": "[1]", "result": "~2.0 × 10^8 M^–1 s^–1"}, {"measurement": "kon, binding of coproheme to apo-HemQ, second (slow) phase", "setting": "[1]", "result": "3.7 × 10^6 M^–1 s^–1"}, {"measurement": "kon, binding of coproheme to apo-HemQ, first (fast) phase", "setting": "[2]", "result": "~1.5 × 10^8 M^–1 s^–1"}, {"measurement": "kon, binding of coproheme to apo-HemQ, second (slow) phase", "setting": "[2]", "result": "2.2 × 10^6 M^–1 s^–1"}, {"measurement": "rate of coproheme binding, fast phase", "setting": "[3]", "result": "1.5–2 × 10^8 M^–1 s^–1"}, {"measurement": "increase of Tm when coproheme binds", "setting": "SaHemQ", "result": 14, "unit": "°C"}]}]}
